Assays:
A549 cells = test: EGFP pDNA transfection, flow cytometry, A549; type: cell-based; conditions: myristoleyl aldehyde, 5 μM
Method: FIG. 6 EGFP pDNA transfection efficacy with amphiphiles (myristoleyl aldehyde hydrophobic tails were used in all cases) comprising peptide 7.3(L-H) and other short peptides structurally-derived from 7.3(L-H), in A549, HeLa and HepG2 cell lines. 5 μM of amphiphile and 2 ng/μL pDNA per well were used in the transfection experiments. “LF”=Lipofectamine® 2000 commercial reagent.
For cytometry-based assays, the delivery of pDNA encoding for the expression of eGFP gene (GFP) in HeLa and A549 cells was performed. Amphiphilic molecule stock solutions in DMSO were diluted with DMEM and freshly mixed with pDNA stock solutions in DMEM prior to transfection experiments, to afford several complexes at different amphiphile concentration (2.5-10 μM) while maintaining a constant final pDNA concentration of 2 ng/μL. The mixture was shaken for 30 min at room temperature before the addition to the cells. The cell medium was aspirated, and cells were washed twice with PBS. Finally, 50 μL of the complex's solution were added to the cells and incubated for 4 h. After the incubation, the medium was replaced by 100 μL of fresh DMEM supplemented with 10% FBS. […] Finally, the GFP fluorescent measurement was performed in a flow cytometer and the percentage of GFP positive (i.e., transfected cells) were quantified. […]

Hela cells = test: EGFP pDNA transfection, flow cytometry, HeLa; type: cell-based; conditions: myristoleyl aldehyde
Method: For cytometry-based assays, the delivery of pDNA encoding for the expression of eGFP gene (GFP) in HeLa and A549 cells was performed. Amphiphilic molecule stock solutions in DMSO were diluted with DMEM and freshly mixed with pDNA stock solutions in DMEM prior to transfection experiments, to afford several complexes at different amphiphile concentration (2.5-10 μM) while maintaining a constant final pDNA concentration of 2 ng/μL. The mixture was shaken for 30 min at room temperature before the addition to the cells. The cell medium was aspirated, and cells were washed twice with PBS. Finally, 50 μL of the complex's solution were added to the cells and incubated for 4 h. After the incubation, the medium was replaced by 100 μL of fresh DMEM supplemented with 10% FBS. 72 hours after transfection the DMEM was removed, and cells were cultured for 5 min with 100 μL of trypsin. Then, 100 μL of PBS (supplemented with 2% FBS and 1% EDTA 0.5M) were added. Finally, the GFP fluorescent measurement was performed in a flow cytometer and the percentage of GFP positive (i.e., transfected cells) were quantified. Amphiphile transfection efficiency was compared to control, non-treated cells and all experiments were done in triplicate.
7.3(Leu-His) peptide with D-amino acids was synthesized. This peptide would be more resistant to the degradation by proteases. The inventors studied the delivery of EGFP pDNA using amphiphiles comprising either enantiomer (either 7.3(Leu-His) peptide with D-amino acids or with L-amino acids) and myristoleyl aldehyde to compare their transfecting activity in HeLa cells. Number of EGFP expressing cells was measured by flow cytometry.
Experiments in cultured cells at different confluence levels were performed to check the effect of this parameter on the activity of amphiphile 7.3(Leu-His) M. As described above, transfection experiments are usually performed on cells seeded the day before at a cell concentration of 60,000 cell/mL (100 μL/well). In the current example, transfection experiments with EGFP pDNA are performed in HeLa cells two and four times more concentrated (120,000 and 240,000 cells/mL, respectively). […] However, for this experiment more volume of complex amphiphile/pDNA was needed as the cell concentration was increased (50, 100 and 200 μL of complexes were used for 60,000, 120,000 and 240,000 cells/mL, respectively).
Several structural modifications were performed on the peptide 7.3(Leu-His). The delivery of EGFP pDNA in HeLa cells using amphiphiles comprising these peptides and myristoleyl aldehyde was tested. The modifications consisted of the modification in the order of the amino acids, the replacement of 1 to 3 K* residues for O* residues and the addition of 1 or 2 R residues on the N-terminus. […]

[1] = 5 μM, cell lines of FIG. 6 other than A549

Substance	EGFP pDNA transfection efficiency compared with other amphiphiles (A549 cells)	EGFP pDNA transfection efficiency compared with amphiphile 7.3(Leu-His) M (Hela cells; [1])	EGFP pDNA transfection efficiency as % of V1-7.3(Leu-His) M or 7.3(Leu-His) M (Hela cells; [1])	EGFP pDNA transfecting activity, D- versus L-amino acid peptide (Hela cells; HeLa, flow cytometry)
Ac-RHK*K*K*HR-NH2 (Ac-RHKKKHR-NH2; not fully specified (residues 3, 4, 5); printed as Ac-RHK*K*K*HR-NH2; also: linker on K* not given here) [V1-7.3(Leu-His)]	about half	generally show the same transfection efficiency	–	–
Ac-RK*HHK*K*R-NH2 (Ac-RKHHKKR-NH2; not fully specified (residues 2, 5, 6); printed as Ac-RK*HHK*K*R-NH2; also: linker on K* not given here) [V2-7.3(Leu-His)]	enhanced efficiency matching V1-7.3(Leu-His) M transfection efficiency	–	about 50%	–
Ac-RK*HRK*K*H-NH2 [7.3(Leu-His) peptide with D-amino acids]	–	–	–	both peptides perform equally efficiently
